Measured values published in ChEMBL document CHEMBL1201862, “PubChem BioAssay data set” (2004).
The source made the active and inactive calls.

Experiments:
[1] = molecular target: G-protein coupled receptor 55 (Homo sapiens, UniProt Q9Y2T6); experiment: GPR55 antagonists blocking LPI-driven arrestin recruitment, primary screen, imaging, U2OS, beta-arrestin-GFP, LPI agonist (AID 2013); format: functional;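 note: antagonist potency measured as reduced agonist-driven arrestin aggregation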
[2] = Intein inhibitors as potential Tuberculosis drugs, a cytotoxicity screen. [Related pubchem assays (depositor defined):AID2221, AID2223, AID434968, AID435010, AID449749, AID449750, AID489010]; format: functional
[3] = molecular target: Sphingosine 1-phosphate receptor 1 (Homo sapiens, UniProt P21453); format: functional;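 note: Tango beta-arrestin reporter U2OS cells stimulated with S1P near its EC80; inhibitor potency meaning antagonism of receptor activation by the natural agonist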
Chain of Sphingosine 1-phosphate receptor 1 (P21453 whole entry, the tested form may be a part): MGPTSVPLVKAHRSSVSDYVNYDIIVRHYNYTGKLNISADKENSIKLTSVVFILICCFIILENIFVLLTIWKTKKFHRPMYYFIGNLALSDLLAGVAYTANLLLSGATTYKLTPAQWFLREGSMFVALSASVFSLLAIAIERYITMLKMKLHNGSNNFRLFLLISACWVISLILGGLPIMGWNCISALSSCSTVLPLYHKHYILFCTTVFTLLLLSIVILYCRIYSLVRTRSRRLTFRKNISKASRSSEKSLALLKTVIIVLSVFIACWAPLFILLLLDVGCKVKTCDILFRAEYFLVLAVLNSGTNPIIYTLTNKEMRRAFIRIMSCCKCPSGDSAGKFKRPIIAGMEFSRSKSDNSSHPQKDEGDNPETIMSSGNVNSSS

[4] = molecular target: T1, RNA-binding protein pos-1 (Caenorhabditis elegans, UniProt G5EF15); experiment: inhibitors of POS-1/mex-3 RNA binding, dose response, biochemical, fluorescence polarization (AID 1964);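 note: purified POS-1 fused to maltose binding protein made in E. coli; potency of compounds blocking POS-1 binding to fluorescent RNA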
T1 sequence (G5EF15 whole entry): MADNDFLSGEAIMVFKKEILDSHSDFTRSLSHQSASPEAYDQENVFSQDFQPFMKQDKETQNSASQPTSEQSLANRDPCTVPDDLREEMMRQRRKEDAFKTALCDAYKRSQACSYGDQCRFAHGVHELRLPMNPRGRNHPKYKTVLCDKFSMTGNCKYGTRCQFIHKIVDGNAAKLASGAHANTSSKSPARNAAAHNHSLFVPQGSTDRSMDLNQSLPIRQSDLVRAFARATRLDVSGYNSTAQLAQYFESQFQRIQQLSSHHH

HEK293 = experiment: cytotoxicity in HEK293T NF-kB-Luc cells, SAR follow-up, cytotoxicity control for NF-kB activator project, cell-based, resazurin fluorescence (AID 493251); format: functional; conditions: Homo sapiens
[5] = C. albicans growth with fluconazole, confirmation, fluorescence, retest (AID 2467); format: functional, cell-based
[6] = cytotoxicity in HEK-293T cells, dose response, cytotoxicity control for TCR NF-kB inhibitor project, luminescence, T-cell screen hits (AID 489026); format: functional, cell-based;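 note: cells exposed to compound about 14 hours before the viability readout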
Jurkat = experiment: SAR Analysis of small molecule inhibitors of T-cell specific antigen receptor-induced NF-kB activation in a Jurkat cell line using a luminescence assay - Set 2. [Related pubchem assays (depositor defined):AID435003, AID435012, AID465]; format: functional, cell-based; conditions: Homo sapiens
BJ [7] = experiment: cytotoxicity toward Ras-transformed BJeLR fibroblasts, dose response, cell-based, alamar blue fluorescence, cherrypicked samples (AID 2631); format: functional; conditions: Homo sapiens;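 note: confirmatory dose-response assay in RAS-dependent BJ fibroblasts engineered with TERT, LT and ST, with cytotoxicity read by fluorescence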
[8] = HepG2 cell cytotoxicity, dose response, cytotoxicity control for non-replicating M. tuberculosis project (AID 489018); format: functional; conditions: Mycobacterium tuberculosis
cells = format: functional
BJ [9] = experiment: cytotoxicity toward BJ-TERT-LT-ST fibroblasts, dose response, cell-based, RAS-independent, luminescence (AID 1935); format: functional; conditions: Homo sapiens;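 note: BJ fibroblasts immortalized with TERT plus LT and ST oncogenes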
[10] = molecular target: T2, Mitochondrial peptide methionine sulfoxide reductase (Bos taurus, UniProt P54149); experiment: Absorbance-based biochemical high throughput dose response assay for activators of Methionine sulfoxide reductase A (MsrA).; format: functional
T2 sequence (P54149 whole entry): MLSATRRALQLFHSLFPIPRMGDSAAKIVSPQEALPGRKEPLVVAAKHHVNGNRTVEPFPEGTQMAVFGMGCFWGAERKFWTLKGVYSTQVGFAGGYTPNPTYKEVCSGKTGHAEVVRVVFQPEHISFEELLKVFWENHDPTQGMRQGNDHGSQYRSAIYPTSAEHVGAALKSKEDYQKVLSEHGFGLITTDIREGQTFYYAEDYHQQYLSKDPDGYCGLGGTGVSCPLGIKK

Caspase-8 = Caspase-8 (Homo sapiens, UniProt Q14790); experiment: caspase-8 inhibition counter-screen, dose response, selectivity assay for caspase-6 inhibitor project, biochemical, Z-IETD-R110 fluorescence, cherry-picked samples (AID 743294)
Chain of Caspase-8 (Q14790 217-374 limits assumed): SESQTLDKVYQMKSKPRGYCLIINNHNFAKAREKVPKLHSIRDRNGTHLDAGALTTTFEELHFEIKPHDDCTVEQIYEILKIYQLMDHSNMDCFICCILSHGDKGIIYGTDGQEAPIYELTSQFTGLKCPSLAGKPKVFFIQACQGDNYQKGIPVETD
Chain of Caspase-8 (Q14790 385-479 limits assumed): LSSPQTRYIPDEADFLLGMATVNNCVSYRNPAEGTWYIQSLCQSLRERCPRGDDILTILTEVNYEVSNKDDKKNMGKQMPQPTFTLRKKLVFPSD

[11] = molecular target: T3, Sentrin-specific protease 7 (Homo sapiens, UniProt Q9BQF6); format: functional;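 note: Luminescence-based dose-response confirmation of ultra-high-throughput screening hits, measuring inhibition of SENP7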
T3 sequence (Q9BQF6 whole entry): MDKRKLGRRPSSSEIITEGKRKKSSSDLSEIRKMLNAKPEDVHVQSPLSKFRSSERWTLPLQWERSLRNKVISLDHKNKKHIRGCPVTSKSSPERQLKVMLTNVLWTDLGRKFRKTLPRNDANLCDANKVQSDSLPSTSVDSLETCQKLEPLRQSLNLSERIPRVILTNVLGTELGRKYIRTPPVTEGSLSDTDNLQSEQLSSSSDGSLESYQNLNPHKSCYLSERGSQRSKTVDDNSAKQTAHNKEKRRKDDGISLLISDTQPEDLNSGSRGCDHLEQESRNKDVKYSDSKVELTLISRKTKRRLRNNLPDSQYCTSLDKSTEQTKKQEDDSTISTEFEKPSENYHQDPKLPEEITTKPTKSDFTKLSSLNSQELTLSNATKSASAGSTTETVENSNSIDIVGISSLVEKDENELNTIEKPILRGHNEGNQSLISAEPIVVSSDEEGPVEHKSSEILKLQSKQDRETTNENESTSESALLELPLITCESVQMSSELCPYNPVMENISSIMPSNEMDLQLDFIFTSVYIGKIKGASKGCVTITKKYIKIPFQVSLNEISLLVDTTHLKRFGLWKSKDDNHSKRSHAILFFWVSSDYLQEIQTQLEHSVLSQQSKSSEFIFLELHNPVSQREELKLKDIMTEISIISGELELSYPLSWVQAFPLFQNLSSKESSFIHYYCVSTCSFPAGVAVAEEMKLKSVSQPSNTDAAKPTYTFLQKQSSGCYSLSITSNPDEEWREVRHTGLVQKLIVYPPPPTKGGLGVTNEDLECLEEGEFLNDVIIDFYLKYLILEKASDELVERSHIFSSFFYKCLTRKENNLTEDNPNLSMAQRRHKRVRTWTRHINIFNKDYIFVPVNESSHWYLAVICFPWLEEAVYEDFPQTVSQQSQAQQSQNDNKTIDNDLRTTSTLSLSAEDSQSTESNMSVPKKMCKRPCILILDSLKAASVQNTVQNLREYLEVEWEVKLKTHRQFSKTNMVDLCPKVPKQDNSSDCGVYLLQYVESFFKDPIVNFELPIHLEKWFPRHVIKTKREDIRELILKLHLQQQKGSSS

Caspase-9 = Caspase-9 (Homo sapiens, UniProt P55211); experiment: caspase-9 enzyme inhibition, dose response, selectivity assay for caspase-6 inhibitor project, biochemical, fluorescence, plate reader, cherry-picked samples (AID 743293)
Chain of Caspase-9 (P55211 1-315 limits assumed): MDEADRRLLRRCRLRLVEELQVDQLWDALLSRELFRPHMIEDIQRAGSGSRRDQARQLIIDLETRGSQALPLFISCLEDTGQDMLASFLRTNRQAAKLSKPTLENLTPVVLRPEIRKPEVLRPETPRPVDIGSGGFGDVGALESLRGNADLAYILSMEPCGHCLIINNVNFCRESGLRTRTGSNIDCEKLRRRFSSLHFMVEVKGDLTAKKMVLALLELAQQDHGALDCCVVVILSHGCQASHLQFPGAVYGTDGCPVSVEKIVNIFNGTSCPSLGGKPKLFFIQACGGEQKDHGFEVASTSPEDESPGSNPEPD
Chain of Caspase-9 (P55211 331-416 limits assumed): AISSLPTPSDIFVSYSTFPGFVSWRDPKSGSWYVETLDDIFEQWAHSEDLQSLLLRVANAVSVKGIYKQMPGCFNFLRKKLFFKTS

[12] = molecular target: T4, Mannose-6-phosphate isomerase (Homo sapiens, UniProt P34949); experiment: human PMI inhibitors, high substrate, primary screen, biochemical, fluorescence intensity, high mannose 6-phosphate (AID 1220)
T4 sequence (P34949 whole entry): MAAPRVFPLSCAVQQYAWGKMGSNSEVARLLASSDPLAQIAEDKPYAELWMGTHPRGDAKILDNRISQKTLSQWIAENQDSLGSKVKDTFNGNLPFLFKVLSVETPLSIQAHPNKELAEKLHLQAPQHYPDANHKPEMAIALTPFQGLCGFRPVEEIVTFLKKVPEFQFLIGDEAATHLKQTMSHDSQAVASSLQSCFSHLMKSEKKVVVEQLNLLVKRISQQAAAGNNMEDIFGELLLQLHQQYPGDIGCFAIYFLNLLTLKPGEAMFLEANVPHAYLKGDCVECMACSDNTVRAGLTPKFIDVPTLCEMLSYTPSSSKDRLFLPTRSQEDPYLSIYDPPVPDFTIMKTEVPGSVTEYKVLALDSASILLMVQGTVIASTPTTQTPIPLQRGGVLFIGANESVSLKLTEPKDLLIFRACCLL

Chain of G-protein coupled receptor 55 (Q9Y2T6 whole entry): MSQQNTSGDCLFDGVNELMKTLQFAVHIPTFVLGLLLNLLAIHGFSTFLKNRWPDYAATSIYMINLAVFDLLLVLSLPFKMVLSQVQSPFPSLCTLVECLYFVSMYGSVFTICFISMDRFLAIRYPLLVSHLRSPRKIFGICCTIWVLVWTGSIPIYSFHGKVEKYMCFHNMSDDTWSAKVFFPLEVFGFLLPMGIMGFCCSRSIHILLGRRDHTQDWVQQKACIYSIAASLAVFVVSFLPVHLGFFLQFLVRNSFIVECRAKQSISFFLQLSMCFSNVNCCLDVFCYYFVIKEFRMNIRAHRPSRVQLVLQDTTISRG

In the case of `Cn1nc(-c2ccc(Cl)cc2)nc2c(=O)n(C)c(=O)nc1-2`, the IC50 [1] is reported as 7.35 µM (active), the CC50 [2] is reported as > 40 µM (active) and the IC50 [3] is reported as 2.34 µM (active). For the same compound, the EC50 [4] was 17.6 µM (active).
For `COc1ccc(C(NC(=O)C(C)C)c2ccc3cccnc3c2O)cc1` (stereo not drawn), the IC50 (HEK293) was 41.3 µM (inactive), the EC50 [5] was 0.692 µM (active) and the IC50 [6] was > 80 µM (inactive). The IC50 (Jurkat) was 2.38 µM (active).
With `O=C(Cc1ccc([N+](=O)[O-])cc1)N/N=C/c1ccc([N+](=O)[O-])o1` the EC50 (BJ [7]) was 7.85 µM (active), the CC50 [8] was 7.53 µM (active) and the IC50 (cells) was 13.2 µM (active). The EC50 (BJ [9]) was 18.3 µM (active).
In the case of `NS(=O)(=O)c1ccc(NC(=O)COC(=O)c2ccc([N+](=O)[O-])s2)cc1`, the EC50 [10] is reported as > 104 µM (inactive), the AC50 (Caspase-8) is reported as 20.3 µM (active) and the IC50 [11] is reported as 7.78 µM (active). The AC50 (Caspase-9) was 22.8 µM (active).
In the case of `CCCCNc1cc(NC(C)=O)cc2cc(OC)c(OC)cc12`, the IC50 [11] is reported as 19.9 µM (active) and the IC50 [12] is reported as > 50 µM (not active).
